Measurements: US9120849B2 (priority 2000, dated 2015)
Where two headings read alike, the source gives them in different places.

System: HIV
Conditions: CEM cells
Protocol: This example describes one method of inactivation of the purified virus according to the invention by crosslinking of surface proteins. […] Titrations of the fixative were preformed above and below the concentration recommended by the CDC for inactivation of virus in biological fluids (May 8, 1992/41 (RR-8); 001 CDC Guidelines for the Performance of CD4+ T-Cell Determinations in Persons with Human Immunodeficiency Virus Infection). Initially, purified virus was slowly thawed at 2-8° C. for 6-8 hours to minimize lysis of the virus. Next, while on ice, virus was diluted with cold PBS to a final concentration of approximately 1×10^10 copies/mL (cp/mL). […] The reaction mixtures were then incubated at 2-8° C. for 60 minutes while gently rocking. […] After the addition of glycine the reactions were gently rocked for 2 hr. at 2-8° C. To remove glycine and any excess unquenched fixative each reaction mixture was then dialyzed (10-14K m.w. cutoff) against 1 L PBS (pH 7.4, 2-8° C.) for 4 changes. Dialyzed virus was then transferred into a 15 mL tube and centrifuged for 10 min. at 3,000×g to pellet any precipitated virus. A sample of each supernatant was then tested in cell culture for the presence of infectious virus.
The modified virus produced as described in Example 2 was tested to ensure the process inactivated the virus. As an illustration, the CEM cell line, obtained from the American Type Culture Collection was used as a host cell for viral infectivity studies. Advantages of using this line are that establishment of in vitro HIV infection requires relatively few virions and that the infection is chronic rather than lytic, facilitating analysis. For these studies, infection is detected and followed using the ZeptoMetrix HIV p24 Antigen EIA (ZeptoMetrix, Buffalo N.Y.).
CEM cells are cultured in RPMI-1640 containing 10% FBS in 24 well plates Cells are plated at 10^5 cells per well in a 1 ml volume and 100 ul of various dilutions of virus, either treated or untreated, are added to individual wells. Cultures are fed twice weekly by 50% media replacement and culture supernatants are assayed for HIV p24. All cultures initially contain HIV p24. However, in cultures where virus is noninfectious HIV p24 levels decrease over time eventually reaching background levels.
Different dilutions (1:8,000, 1:80,000, and 1:800,000) of treated virus were then placed into cultures of CEM cells and p24 assays were performed on culture supernatants on days 3, 7, 10, and 14 post-inoculation. Data are expressed as pg/ml of HIV p24 protein in the culture supernatants. The standard curve for the p24 assay is linear from 7.8 pg/ml to 125 pg/ml. HIV p24 concentrations below 7.8 pg/ml are expressed as “<7.8 pg/ml” to indicate sensitivity of the assay, and values above 125 pg/ml are expressed as “>125 pg/ml” since the assay is nonlinear above 125 pg/ml.

paraformaldehyde
HIV p24 protein in culture supernatants (0.625% paraformaldehyde 60 min, treated HIV diluted 1:8,000, 3 days post-inoculation): 71.8 pg/mL
HIV p24 protein in culture supernatants (0.625% paraformaldehyde 60 min, treated HIV diluted 1:8,000, 7 days post-inoculation): 109 pg/mL
HIV p24 protein in culture supernatants (0.625% paraformaldehyde 60 min, treated HIV diluted 1:8,000, 10 days post-inoculation): 22.9 pg/mL
HIV p24 protein in culture supernatants (0.625% paraformaldehyde 60 min, treated HIV diluted 1:8,000, 14 days post-inoculation): <7.8 pg/mL
HIV p24 protein in culture supernatants (0.625% paraformaldehyde 60 min, treated HIV diluted 1:80,000, 3 days post-inoculation): <7.8 pg/mL
HIV p24 protein in culture supernatants (0.625% paraformaldehyde 60 min, treated HIV diluted 1:80,000, 7 days post-inoculation): <7.8 pg/mL
HIV p24 protein in culture supernatants (0.625% paraformaldehyde 60 min, treated HIV diluted 1:80,000, 10 days post-inoculation): <7.8 pg/mL
HIV p24 protein in culture supernatants (0.625% paraformaldehyde 60 min, treated HIV diluted 1:80,000, 14 days post-inoculation): <7.8 pg/mL
HIV p24 protein in culture supernatants (0.625% paraformaldehyde 60 min, treated HIV diluted 1:800,000, 3 days post-inoculation): <7.8 pg/mL
HIV p24 protein in culture supernatants (0.625% paraformaldehyde 60 min, treated HIV diluted 1:800,000, 7 days post-inoculation): <7.8 pg/mL
HIV p24 protein in culture supernatants (0.625% paraformaldehyde 60 min, treated HIV diluted 1:800,000, 10 days post-inoculation): <7.8 pg/mL
HIV p24 protein in culture supernatants (0.625% paraformaldehyde 60 min, treated HIV diluted 1:800,000, 14 days post-inoculation): <7.8 pg/mL
HIV p24 protein in culture supernatants (1.25% paraformaldehyde 60 min, treated HIV diluted 1:8,000, 3 days post-inoculation): 41.9 pg/mL
HIV p24 protein in culture supernatants (1.25% paraformaldehyde 60 min, treated HIV diluted 1:8,000, 7 days post-inoculation): 34.2 pg/mL
HIV p24 protein in culture supernatants (1.25% paraformaldehyde 60 min, treated HIV diluted 1:8,000, 10 days post-inoculation): <7.8 pg/mL
HIV p24 protein in culture supernatants (1.25% paraformaldehyde 60 min, treated HIV diluted 1:8,000, 14 days post-inoculation): <7.8 pg/mL
HIV p24 protein in culture supernatants (1.25% paraformaldehyde 60 min, treated HIV diluted 1:80,000, 3 days post-inoculation): <7.8 pg/mL
HIV p24 protein in culture supernatants (1.25% paraformaldehyde 60 min, treated HIV diluted 1:80,000, 7 days post-inoculation): <7.8 pg/mL
HIV p24 protein in culture supernatants (1.25% paraformaldehyde 60 min, treated HIV diluted 1:80,000, 10 days post-inoculation): <7.8 pg/mL
HIV p24 protein in culture supernatants (1.25% paraformaldehyde 60 min, treated HIV diluted 1:80,000, 14 days post-inoculation): <7.8 pg/mL
HIV p24 protein in culture supernatants (1.25% paraformaldehyde 60 min, treated HIV diluted 1:800,000, 3 days post-inoculation): <7.8 pg/mL
HIV p24 protein in culture supernatants (1.25% paraformaldehyde 60 min, treated HIV diluted 1:800,000, 7 days post-inoculation): <7.8 pg/mL
HIV p24 protein in culture supernatants (1.25% paraformaldehyde 60 min, treated HIV diluted 1:800,000, 10 days post-inoculation): <7.8 pg/mL
HIV p24 protein in culture supernatants (1.25% paraformaldehyde 60 min, treated HIV diluted 1:800,000, 14 days post-inoculation): <7.8 pg/mL
HIV p24 protein in culture supernatants (2.5% paraformaldehyde 60 min, treated HIV diluted 1:8,000, 3 days post-inoculation): <7.8 pg/mL
HIV p24 protein in culture supernatants (2.5% paraformaldehyde 60 min, treated HIV diluted 1:8,000, 7 days post-inoculation): <7.8 pg/mL
HIV p24 protein in culture supernatants (2.5% paraformaldehyde 60 min, treated HIV diluted 1:8,000, 10 days post-inoculation): <7.8 pg/mL
HIV p24 protein in culture supernatants (2.5% paraformaldehyde 60 min, treated HIV diluted 1:8,000, 14 days post-inoculation): <7.8 pg/mL
HIV p24 protein in culture supernatants (2.5% paraformaldehyde 60 min, treated HIV diluted 1:80,000, 3 days post-inoculation): <7.8 pg/mL
HIV p24 protein in culture supernatants (2.5% paraformaldehyde 60 min, treated HIV diluted 1:80,000, 7 days post-inoculation): <7.8 pg/mL
HIV p24 protein in culture supernatants (2.5% paraformaldehyde 60 min, treated HIV diluted 1:80,000, 10 days post-inoculation): <7.8 pg/mL
HIV p24 protein in culture supernatants (2.5% paraformaldehyde 60 min, treated HIV diluted 1:80,000, 14 days post-inoculation): <7.8 pg/mL
HIV p24 protein in culture supernatants (2.5% paraformaldehyde 60 min, treated HIV diluted 1:800,000, 3 days post-inoculation): <7.8 pg/mL
HIV p24 protein in culture supernatants (2.5% paraformaldehyde 60 min, treated HIV diluted 1:800,000, 7 days post-inoculation): <7.8 pg/mL
HIV p24 protein in culture supernatants (2.5% paraformaldehyde 60 min, treated HIV diluted 1:800,000, 10 days post-inoculation): <7.8 pg/mL
HIV p24 protein in culture supernatants (2.5% paraformaldehyde 60 min, treated HIV diluted 1:800,000, 14 days post-inoculation): <7.8 pg/mL
HIV p24 protein in culture supernatants (5.0% paraformaldehyde 60 min, treated HIV diluted 1:8,000, 3 days post-inoculation): <7.8 pg/mL
HIV p24 protein in culture supernatants (5.0% paraformaldehyde 60 min, treated HIV diluted 1:8,000, 7 days post-inoculation): <7.8 pg/mL
HIV p24 protein in culture supernatants (5.0% paraformaldehyde 60 min, treated HIV diluted 1:8,000, 10 days post-inoculation): <7.8 pg/mL
HIV p24 protein in culture supernatants (5.0% paraformaldehyde 60 min, treated HIV diluted 1:8,000, 14 days post-inoculation): <7.8 pg/mL
HIV p24 protein in culture supernatants (5.0% paraformaldehyde 60 min, treated HIV diluted 1:80,000, 3 days post-inoculation): <7.8 pg/mL
HIV p24 protein in culture supernatants (5.0% paraformaldehyde 60 min, treated HIV diluted 1:80,000, 7 days post-inoculation): <7.8 pg/mL
HIV p24 protein in culture supernatants (5.0% paraformaldehyde 60 min, treated HIV diluted 1:80,000, 10 days post-inoculation): <7.8 pg/mL
HIV p24 protein in culture supernatants (5.0% paraformaldehyde 60 min, treated HIV diluted 1:80,000, 14 days post-inoculation): <7.8 pg/mL
HIV p24 protein in culture supernatants (5.0% paraformaldehyde 60 min, treated HIV diluted 1:800,000, 3 days post-inoculation): <7.8 pg/mL
HIV p24 protein in culture supernatants (5.0% paraformaldehyde 60 min, treated HIV diluted 1:800,000, 7 days post-inoculation): <7.8 pg/mL
HIV p24 protein in culture supernatants (5.0% paraformaldehyde 60 min, treated HIV diluted 1:800,000, 10 days post-inoculation): <7.8 pg/mL
HIV p24 protein in culture supernatants (5.0% paraformaldehyde 60 min, treated HIV diluted 1:800,000, 14 days post-inoculation): <7.8 pg/mL
HIV p24 protein in culture supernatants (exposure time 15 minutes, treated HIV diluted 1:8,000, 3 days post-inoculation): >125 pg/mL
HIV p24 protein in culture supernatants (exposure time 15 minutes, treated HIV diluted 1:8,000, 7 days post-inoculation): >125 pg/mL
